In ChEMBL document CHEMBL1131935, “Novel cytokine release inhibitors. Part IV: analogs of podocarpic acid” (Bioorg Med Chem Lett, 1999) one finds inhibition and IC50 data, which are given here for 33 molecules.

For the first test, the species on record is Homo sapiens. The test can be described thus: Compound tested for the inhibition of IL1-beta release stimulated with LPS in human monocytes was determined at a concentration of 1 uM. Format: functional.
In turn, `COC(=O)[C@@]1(C)CCC[C@]2(C)c3cc(O)c(C(C)C)cc3C=C[C@@H]12` returned an inhibition at 1 µM of 38%. Still for that read-out and setting: the figure for `COC(=O)[C@@]1(C)CCC[C@]2(C)c3cc(O)c([N+](=O)[O-])cc3C=C[C@@H]12` is 5%; for `COC(=O)[C@@]1(C)CCC[C@]2(C)c3cc(O)ccc3CCC12` (stereo partly drawn) it is 15%; for `COC(=O)[C@@]1(C)CCC[C@]2(C)c3cc(O)c(O)cc3CCC12` (stereo partly drawn) it is 42%.

The species entered for the next test is Homo sapiens. Nature of the test: Inhibition of IL1-beta release stimulated with LPS in human monocytes. The test is classed as functional.
The molecule `COC(=O)Cc1cc2c(cc1C(=O)OC)[C@@]1(C)CCC[C@](C)(C(=O)OC)[C@@H]1C=C2` yielded an IC50 of 400 nM. `C=CCc1c2c(cc(C(=O)OC)c1C(=O)OC)[C@@]1(C)CCC[C@](C)(C(=O)OC)C1CC2` (stereo partly drawn) had an IC50 of 200 nM. On the same count and under the same terms, in the case of `COC(=O)[C@@]1(C)CCC[C@]2(C)c3cc(C(=O)OC(C)C)c(C(=O)OC(C)C)cc3C=CC12` (stereo partly drawn) it was 110 nM; in that of `COC(=O)c1cc2c(c(C)c1C(=O)OC)C=CC1[C@@](C)(C(=O)OC)CCC[C@]21C` (stereo partly drawn), 140 nM; in that of `CCOC(=O)CCCNC(=O)[C@@]1(C)CCC[C@]2(C)c3cc(C(=O)OC)c(C(=O)OC)cc3C=CC12` (stereo partly drawn), 150 nM. Same read-out and setting: in the case of `COC(=O)C[C@@]1(C)CCC[C@]2(C)c3cc(C(=O)OC)c(C(=O)OC)cc3C=CC12` (stereo partly drawn) it was 160 nM; in that of `CCCc1c2c(cc(C(=O)OC)c1C(=O)OC)[C@@]1(C)CCC[C@](C)(C(=O)OC)C1C=C2` (stereo partly drawn), 110 nM; in that of `COC(=O)c1cc2c(cc1OC)[C@@]1(C)CCC[C@](C)(C(=O)OC)[C@@H]1C(=O)C2`, 260 nM. On the same count and under the same terms, the figure for `COC(=O)c1cc2c(cc1C(=O)OC)[C@@]1(C)CCC[C@](C)(C(=O)OC)C1C=C2` (stereo partly drawn) is 100 nM; for `COc1cc2c(c(C)c1O)C=C[C@H]1[C@@](C)(C(=O)O)CCC[C@]21C` it is 100 nM. Regarding `COC(=O)[C@@]1(C)CCC[C@]2(C)c3cc(OC)c(O)cc3C=C[C@@H]12`, the half-maximal inhibitory concentration (IC50) is 100 nM. On the same count and under the same terms, in the case of `CCCc1c(C(=O)OC)c(C(=O)OC)cc2c1C(=O)CC1[C@@](C)(C(=O)OC)CCC[C@]21C` (stereo partly drawn) it was 800 nM; in that of `CCCc1c2c(cc(C(=O)OC)c1C(=O)OC)[C@@]1(C)CCC[C@](C)(C(=O)OC)C1CC2` (stereo partly drawn), 300 nM; in that of `COC(=O)[C@@]1(C)CCC[C@]2(C)c3cc(O)c(O)cc3C=CC12` (stereo partly drawn), 100 nM. On the same count and under the same terms, in the case of `COC(=O)c1cc2c(c(Br)c1C(=O)OC)CCC1[C@@](C)(C(=O)OC)CCC[C@]21C` (stereo partly drawn) it was 400 nM; in that of `COC(=O)c1cc2c(cc1OC)C=C[C@H]1[C@@](C)(C(=O)OC)CCC[C@]21C`, 100 nM; in that of `COC(=O)c1cc2c(cc1C(=O)OC)[C@@]1(C)CCC[C@](C)(C(=O)N3CCOCC3)C1C=C2` (stereo partly drawn), 110 nM. The same measure, in the same setting: in the case of `COC(=O)c1cc2c(cc1OC)[C@@]1(C)CCC[C@](C)(C(=O)OC)[C@@H]1C=C2` it was 160 nM. In the case of `COC(=O)c1cc2c(cc1C(=O)OC)[C@@]1(C)CCC[C@](C)(C(=O)OC)C1CC2=O` (stereo partly drawn), the midpoint of inhibition, the IC50, lay at 1000 nM. Turning to `COC(=O)c1cc2c(cc1NS(C)(=O)=O)C=C[C@H]1[C@@](C)(C(=O)OC)CCC[C@]21C`, the midpoint of inhibition, the IC50, lay at 100 nM. Still for that read-out and setting: the figure for `COC(=O)[C@@]1(C)CCC[C@]2(C)c3cc(O)c(OC)cc3C=C[C@@H]12` is 100 nM. Consider `COC(=O)c1cc2c(cc1Br)C=C[C@H]1[C@@](C)(C(=O)OC)CCC[C@]21C`, for which the IC50 was found to be 800 nM. `COC(=O)c1cc2c(cc1C(=O)OC)[C@@]1(C)CCC[C@](C)(C(=O)O)C1C=C2` (stereo partly drawn) returned a 50% inhibitory concentration (IC50) of 110 nM. As to `COC(=O)c1cc2c(c(C(C)=O)c1C(=O)OC)CCC1[C@@](C)(C(=O)OC)CCC[C@]21C` (stereo partly drawn), the concentration for half-maximal inhibition (IC50) is 110 nM. Regarding `COC(=O)[C@@]1(C)CCC[C@]2(C)c3cc(OC)c(O)cc3CC[C@@H]12`, inhibition was half-maximal at 1400 nM (IC50). `COC(=O)[C@@]1(C)CCC[C@]2(C)c3cc(O)c(N)cc3C=C[C@@H]12` came in with an IC50 of 150 nM. On the same count and under the same terms, in the case of `CCCc1c2c(cc(OC)c1C(=O)OC)[C@@]1(C)CCC[C@](C)(C(=O)OC)[C@@H]1C=C2` it was 300 nM; in that of `COC(=O)c1cc2c(c(C)c1C(=O)OC)C(C)=CC1[C@@](C)(C(=O)OC)CCC[C@]21C` (stereo partly drawn), 200 nM. The same measure, in the same setting: in the case of `COC(=O)[C@@]1(C)CCC[C@]2(C)c3cc(C(=O)OC(C)(C)C)c(C(=O)OC(C)(C)C)cc3C=CC12` (stereo partly drawn) it was 540 nM.
